Laboratory results published in US7282210B2, “Process for the in vitro culture of different stages of tissular parasites” (priority 1993, dated 2007).

Legend:
[1] = system: cultured amastigote forms of L. mexicana, L. amazonensis, L. braziliensis and L. chagasi; assay: direct leishmanicidal effect of nitric oxide on cultured amastigote forms; type: cell-based, Leishmania
Text: (§1) Also, one of the mechanisms leading to lysis of the amastigote forms was elucidated.
The culture kinetics as well as the differentiation of the amastigote forms into promastigote forms were monitored after this treatment.

cis-aconitase = assay: enzymatic activities of amastigote forms treated or not treated with NO; type: biochemical, Leishmania
Text: as §1

[2] = system: resistant promastigote forms of L. mexicana; assay: growth inhibition by pentamidine, resistant promastigote forms; type: cell-based; settings: Leishmania mexicana, read-out: IC50 (concentration of pentamidine for which a growth inhibition of 50% is observed)
Text: (§2) In the stage of putting in contact, the parasitic forms are used at concentrations of 10^6 parasite/ml and the activity of the medicaments is studied at increasing concentrations.
(§3) Promastigote forms of L. mexicana resistant to pentamidine are obtained by medicamentous pressure in vitro and have a resistance index of about 30. They are then transformed according to the culture method already described into corresponding cultured amastigote forms which, after determination of the IC50, retain the resistance to pentamidine induced in the promastigote forms.
(§4) For the promastigotes the value is 27 and for the amastigotes it is 26.

[3] = system: resistant amastigote forms of L. mexicana; assay: growth inhibition by pentamidine, resistant amastigote forms; type: cell-based
Text: as §2, §3, §4

[4] = system: untreated promastigote forms of L. mexicana; assay: growth inhibition by pentamidine, untreated promastigote forms; type: cell-based; settings: Leishmania mexicana, read-out: IC50 (concentration of pentamidine for which a growth inhibition of 50% is observed)
Text: as §2, §3, §4

[5] = medium containing alpha-ketoglutaric acid (3 mM) and cis-aconitate (3 mM) added immediately to parasites treated with NO

`[N]=O` [NO, nitric oxide] was tested, and the “leishmanicidal effect on cultured amastigote forms” value ([1]; gaseous NO (1%) carried by nitrogen (99%), pulsed for 15 minutes) was “leishmanicidal activity” and the “effect on cis-aconitase activity” value (cis-aconitase) was “inhibition of cis-aconitase”.
With `N=C(N)c1ccc(OCCCCCOc2ccc(C(=N)N)cc2)cc1` [pentamidine] the IC50 [2] was 33 µM, the IC50 ([3]; Leishmania mexicana, read-out: IC50 (concentration of pentamidine for which a growth inhibition of 50% is observed)) was 32 ± 1 µM and the “resistance index (IC50 of the resistant strain/IC50 of the untreated strain)” value ([3]; amastigotes) was 26. For the same molecule, the IC50 [4] was 1.2 ± 0.05 µM.
For `O=S(=O)([O-])[O-].[Fe+2]` [FeSO4], the “growth of NO-treated amastigote forms” value ([1]; medium containing 100 μm of FeSO4 added immediately to parasites treated with NO) was “restore the growth of the amastigote forms”.
For `O=C(O)CCC(=O)C(=O)O` [alpha-ketoglutaric acid], the “growth of NO-treated amastigote forms” value [1, 5] was “restore the growth of the amastigote forms”.
`O=C(O)/C=C(/CC(=O)O)C(=O)O` [cis-aconitate] was tested, and the “growth of NO-treated amastigote forms” value [1, 5] was “restore the growth of the amastigote forms”.
